Experimental findings from patent US20210147932A1, “FLUORESCENT PROBES FOR QUANTIFICATION OF DNA DAMAGE AND REPAIR” (The Board of Trustees of the Leland Stanford Junior …, priority 2019, published 2021) are described below.

The test system of one test is AP-DNA. In words: Oxime formation kinetics of probe with AP-DNA. The format is biochemical. To be noted: Tris buffer, probe concentration 10-100 μM.
Test [1] relates to AP-containing single-stranded DNA oligonucleotide (oligonucleotide 18). In words: Reaction of probe with AP-containing single-stranded DNA. The format is biochemical. How it is done:
FIG. 8 provides representative plot for the reaction of Compound (1) (CCVJ1) with single stranded DNA oligonucleotide 18.
Additional experiments were performed to study the origins of this unusually rapid reaction. […] To test the effect that proximity between the alkoxyamine and planar portion of the probe had on oxime kinetics in our probes, probes were synthesized having variable-length linkers (CCVJ2 and CCVJ3) from aldehyde reactive linkers L2 and L3 respectively (FIG. 2A). […] To test the importance of a double-stranded DNA structure to the rate and fluorescence response, an AP-containing single-stranded DNA oligonucleotide was reacted with CCVJ1. At pH 7, CCVJ1 reacted with a second-order rate constant of 33 M^−1s^−1 with the single-stranded substrate, roughly 5-fold slower than a double-stranded hairpin with identical sequence context (FIG. 8).

In the case of `N#C/C(=C\c1cc2c3c(c1)CCCN3CCC2)C(=O)NCCON` [CCVJ1], in the test on AP-DNA, the “lag time tss of UBER probe coupled assay” value was in the range of 5 to 50 min. For the same compound, the “increase in fluorescence on reaction with single-stranded DNA” value in test [1] is on record as 4 fold. In test [1] (pH 7), the “rate with single-stranded substrate, slower than double-stranded hairpin of identical sequence context” value is “roughly 5 fold” and the “second-order rate constant with single-stranded substrate” value worked out at 33 M⁻¹ s⁻¹.
